# Results reported in the supplement of paper PMC10307832.
# How the values were obtained:
# Experiment in all cases: relative viability (nuclei count vs DMSO), 5 days (fraction); higher = more cells survive
# [1] = system: LXF-289
# Method in brief: (§1)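 Lung cancer cell lines in 1536-well plates got either a single drug or a fixed anchor-drug dose together with five library-drug doses (not always all listed) in √10 steps, by pin tool, on the day after seeding. Nuclei were counted after 5 days, and relative viability is the treated-to-vehicle ratio of nuclei counts. Values are medians of duplicate plates.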
# [2] = system: NCI-H3122
# Method in brief: as §1
# [3] = system: NCI-H838
# Method in brief: as §1
# [4] = system: NCI-H1666
# Method in brief: as §1
# [5] = system: NCI-H2170
# Method in brief: as §1
# [6] = system: NCI-H358
# Method in brief: as §1
# [7] = system: ABC-1
# Method in brief: as §1
# [8] = system: BEN
# Method in brief: as §1
# [9] = system: EKVX
# Method in brief: as §1
# [10] = system: NCI-H23
# Method in brief: as §1
# [11] = system: SK-MES-1
# Method in brief: as §1
# [12] = system: NCI-H520
# Method in brief: as §1
# [13] = system: LU99A
# Method in brief: as §1
# [14] = system: NCI-H727
# Method in brief: as §1
# [15] = system: NCI-H322M
# Method in brief: as §1
# [16] = system: HOP-62
# Method in brief: as §1
# [17] = system: HCC-827
# Method in brief: as §1
# [18] = system: EPLC-272H
# Method in brief: as §1
# [19] = system: UMC-11
# Method in brief: as §1
# [20] = system: NCI-H2405
# Method in brief: as §1
# [21] = system: NCI-H1975
# Method in brief: as §1
smiles,measurement,setting,value
COCC1(CO)C(=O)C2CCN1CC2 (stereo not drawn) [PRIMA-1MET] + CC(=O)c1c(C)c2cnc(Nc3ccc(N4CCNCC4)cn3)nc2n(C2CCCC2)c1=O [Palbociclib] (partner 0.5 µM),relative viability,[1]; first compound 0.2 µM,0.642
same,relative viability,[1]; first compound 0.6325 µM,0.662
same,relative viability,[1]; first compound 2 µM,0.734
same,relative viability,[1]; first compound 6.325 µM,0.594
same,relative viability,[1]; first compound 20 µM,0.602
same,relative viability,[2]; first compound 0.2 µM,0.21
same,relative viability,[2]; first compound 0.6325 µM,0.167
same,relative viability,[2]; first compound 2 µM,0.184
same,relative viability,[2]; first compound 6.325 µM,0.2
same,relative viability,[2]; first compound 20 µM,0.201
same,relative viability,[3]; first compound 0.2 µM,0.261
same,relative viability,[3]; first compound 0.6325 µM,0.188
same,relative viability,[3]; first compound 2 µM,0.207
same,relative viability,[3]; first compound 6.325 µM,0.22
same,relative viability,[3]; first compound 20 µM,0.232
same,relative viability,[4]; first compound 0.2 µM,0.69
same,relative viability,[4]; first compound 0.6325 µM,0.647
same,relative viability,[4]; first compound 2 µM,0.614
same,relative viability,[4]; first compound 6.325 µM,0.699
same,relative viability,[4]; first compound 20 µM,0.695
same,relative viability,[5]; first compound 0.2 µM,0.422
same,relative viability,[5]; first compound 0.6325 µM,0.36
same,relative viability,[5]; first compound 2 µM,0.391
same,relative viability,[5]; first compound 6.325 µM,0.449
same,relative viability,[5]; first compound 20 µM,0.379
same,relative viability,[6]; first compound 0.2 µM,0.148
same,relative viability,[6]; first compound 0.6325 µM,0.154
same,relative viability,[6]; first compound 2 µM,0.115
same,relative viability,[6]; first compound 6.325 µM,0.137
same,relative viability,[6]; first compound 20 µM,0.112
same,relative viability,[7]; first compound 0.2 µM,0.984
same,relative viability,[7]; first compound 2 µM,0.482
same,relative viability,[7]; first compound 6.325 µM,0.552
same,relative viability,[7]; first compound 20 µM,0.181
same,relative viability,[8]; first compound 0.2 µM,0.46
same,relative viability,[8]; first compound 0.6325 µM,0.463
same,relative viability,[8]; first compound 6.325 µM,0.463
same,relative viability,[8]; first compound 20 µM,0.437
same,relative viability,[9]; first compound 0.2 µM,0.42
same,relative viability,[9]; first compound 2 µM,0.346
same,relative viability,[9]; first compound 6.325 µM,0.368
same,relative viability,[9]; first compound 20 µM,0.321
same,relative viability,[10]; first compound 0.2 µM,0.469
same,relative viability,[10]; first compound 0.6325 µM,0.351
same,relative viability,[10]; first compound 2 µM,0.416
same,relative viability,[10]; first compound 6.325 µM,0.538
same,relative viability,[10]; first compound 20 µM,0.121
same,relative viability,[11]; first compound 0.2 µM,0.323
same,relative viability,[11]; first compound 0.6325 µM,0.371
same,relative viability,[11]; first compound 2 µM,0.326
same,relative viability,[11]; first compound 6.325 µM,0.291
same,relative viability,[11]; first compound 20 µM,0.295
same,relative viability,[12]; first compound 0.2 µM,0.249
same,relative viability,[12]; first compound 2 µM,0.202
same,relative viability,[12]; first compound 6.325 µM,0.216
same,relative viability,[12]; first compound 20 µM,0.142
same,relative viability,[13]; first compound 0.2 µM,0.43
same,relative viability,[13]; first compound 0.6325 µM,0.414
same,relative viability,[13]; first compound 2 µM,0.414
same,relative viability,[13]; first compound 6.325 µM,0.349
same,relative viability,[13]; first compound 20 µM,0.225
same,relative viability,[14]; first compound 0.2 µM,0.629
same,relative viability,[14]; first compound 0.6325 µM,0.584
same,relative viability,[14]; first compound 6.325 µM,0.672
same,relative viability,[14]; first compound 20 µM,0.379
same,relative viability,[15]; first compound 0.2 µM,0.535
same,relative viability,[15]; first compound 0.6325 µM,0.515
same,relative viability,[15]; first compound 6.325 µM,0.525
same,relative viability,[15]; first compound 20 µM,0.34
same,relative viability,[16]; first compound 0.2 µM,0.549
same,relative viability,[16]; first compound 0.6325 µM,0.385
same,relative viability,[16]; first compound 2 µM,0.469
same,relative viability,[16]; first compound 6.325 µM,0.475
same,relative viability,[16]; first compound 20 µM,0.317
same,relative viability,[17]; first compound 0.2 µM,0.573
same,relative viability,[17]; first compound 0.6325 µM,0.462
same,relative viability,[17]; first compound 2 µM,0.403
same,relative viability,[17]; first compound 6.325 µM,0.506
same,relative viability,[17]; first compound 20 µM,0.615
same,relative viability,[18]; first compound 0.2 µM,0.312
same,relative viability,[18]; first compound 0.6325 µM,0.276
same,relative viability,[18]; first compound 2 µM,0.329
same,relative viability,[18]; first compound 6.325 µM,0.336
same,relative viability,[18]; first compound 20 µM,0.289
same,relative viability,[19]; first compound 0.2 µM,0.31
same,relative viability,[19]; first compound 0.6325 µM,0.362
same,relative viability,[19]; first compound 2 µM,0.268
same,relative viability,[19]; first compound 6.325 µM,0.356
same,relative viability,[19]; first compound 20 µM,0.278
same,relative viability,[20]; first compound 0.2 µM,0.487
same,relative viability,[20]; first compound 0.6325 µM,0.539
same,relative viability,[20]; first compound 6.325 µM,0.518
same,relative viability,[20]; first compound 20 µM,0.24
same,relative viability,[21]; first compound 0.2 µM,0.513
same,relative viability,[21]; first compound 0.6325 µM,0.483
same,relative viability,[21]; first compound 2 µM,0.409
same,relative viability,[21]; first compound 6.325 µM,0.693
same,relative viability,[21]; first compound 20 µM,0.582
